The test system of this assay is SARS-CoV-2 strain USA-WA1/2020. The assay is described as follows: microbe, parasite or virus in culture. It is filed as cell-based. To be noted: read-out: EC50, uM (Hela).
[1] abbreviates: Severe acute respiratory syndrome coronavirus 2, HeLa-ACE2, 24 h, HeLa-ACE2 cells, SARS-CoV-2 infection, 24 h, class symbols.
Setting [2] is: Severe acute respiratory syndrome coronavirus 2, HeLa-ACE2, 24 h, HeLa-ACE2 cells, SARS-CoV-2 infection, 24 h.

Read-outs that look alike come from different tables or passages of the source. Where only a bound is given, the exact number is not on record here.

What is called EC50 is the concentration giving half of the maximal effect. As for `CC(C)(C)c1ccccc1NC(=O)C(=O)N[C@@H](CC1CCCCC1)C(=O)N[C@@H](C[C@@H]1CCNC1=O)C(=O)COc1c(F)c(F)cc(F)c1F` [Compound 117, Nl-(2-(tert-butyl)phenyl)-N2-((S)-3-cyclohexyl-1-oxo-1-(((S)-3-oxo-1-((S)-2-oxopyrrolidin-3-yl)-4-(2,3,5,6-tetrafluorophenoxy)butan-2-yl)amino)propan-2-yl)oxalamide], the EC50 under setting [1] is less than 0.05 µM. As to `O=C1NCC[C@H]1C[C@H](NC(=O)[C@@H]1CC2(CC2)CN1C(=O)[C@@H](O)CC(C(F)(F)F)C(F)(F)F)C(=O)COC(F)(F)F` [Compound 745, (S)-N-((S)-3-oxo-1-((S)-2-oxopyrrolidin-3-yl)-4-(trifluoromethoxy)butan-2-yl)-5-((S)-5,5,5-trifluoro-2-hydroxy-4-(trifluoromethyl)pentanoyl)-5-azaspiro[2.4]heptane-6-carboxamide], the EC50 under setting [2] is less than 0.05 µM. With `O=C(Nc1ccccc1F)C(=O)N1[C@H](C(=O)N[C@@H](C[C@@H]2CCNC2=O)C(=O)COC(F)(F)F)C[C@@H]2C[C@@H]21` [Compound 539, (1S,3S,5S)-2-(2-((2-fluorophenyl)amino)-2-oxoacetyl)-N-((S)-3-oxo-1-((S)-2-oxopyrrolidin-3-yl)-4-(trifluoromethoxy)butan-2-yl)-2-azabicyclo-[3.1.0]hexane-3-carboxamide], the EC50 under setting [2] fell in the range of 0.05 to 0.2 µM. In the case of `O=C1NCC[C@H]1C[C@H](NC(=O)[C@@H]1[C@H]2CCC[C@H]2CN1C(=O)C1(NC(=O)C(F)(F)F)CCC1)C(=O)COC(F)(F)F` [Compound 274, (1S,3aR,6aS)-N-((S)-3-oxo-1-((S)-2-oxopyrrolidin-3-yl)-4-(trifluoromethoxy)butan-2-yl)-2-(l-(2,2,2-trifluoroacetamido)-cyclobutane-1-carbonyl)octahydro-cyclopenta[c]pyrrole-l-carboxamide], the EC50 lay within 0.2 to 0.5 µM. On to `O=C1NCC[C@H]1C[C@H](NC(=O)[C@@H]1CC2(CC2)CN1C(=O)[C@H](O)C1CCC1)C(=O)COC(F)(F)F` [Compound 760, (S)-5-((R)-2-cyclobutyl-2-hydroxyacetyl)-N-((S)-3-oxo-1-((S)-2-oxopyrrolidin-3-yl)-4-(trifluoromethoxy)butan-2-yl)-5-azaspiro[2.4]heptane-6-carboxamide], for which the EC50 under setting [2] was 0.05 to 0.2 µM.

Turning to `CCNC(=O)O[C@@H](C(=O)N1CC2(CC2)C[C@H]1C(=O)N[C@@H](C[C@@H]1CCNC1=O)C(=O)COC(F)(F)F)C(C)(C)C` [Compound 332, (R)-3,3-dimethyl-1-oxo-l-((S)-6-(((S)-3-oxo-1-((S)-2-oxopyrrolidin-3-yl)-4-(trifluoromethoxy)butan-2-yl)carbamoyl)-5-azaspiro[2.4]heptan-5-yl)butan-2-yl ethylcarbamate], the EC50 (Severe acute respiratory syndrome coronavirus 2, HeLa-ACE2, 24 h) lay within 0.5 to 1 µM. For the compound `CC1(C)[C@@H]2[C@@H](C(=O)N[C@H](C[C@@H]3CCNC3=O)C(=O)COC(F)(F)F)N(C(=O)c3cc(C(F)(F)F)no3)C[C@@H]21` [Compound 492, (1R,2S,5S)-6,6-dimethyl-N-((R)-3-oxo-1-((S)-2-oxopyrrolidin-3-yl)-4-(trifluoromethoxy)butan-2-yl)-3-(3-(trifluoromethyl)-isoxazole-5-carbonyl)-3-azabicyclo[3.1.0]-hexane-2-carboxamide], the EC50 under setting [2] lay in the range of 0.05 to 0.2 µM. On the same count and under the same terms, then `CCC(CC)C(=O)N1CC2(CC2)C[C@H]1C(=O)N[C@@H](C[C@@H]1CCNC1=O)C(=O)COC(F)(F)F` [Compound 448, (S)-5-(2-ethylbutanoyl)-N-((S)-3-oxo-1-((S)-2-oxopyrrolidin-3-yl)-4-(trifluoromethoxy)butan-2-yl)-5-azaspiro[2.4]heptane-6-carboxamide], with 0.05 to 0.2 µM. Regarding `CC(C)C[C@@H](O)C(=O)N1C[C@H]2[C@@H]([C@H]1C(=O)N[C@@H](C[C@@H]1CCNC1=O)C(=O)COC(F)(F)F)C2(C)C` [Compound 361, (1R,2S,5S)-3-((R)-2-hydroxy-4-methylpentanoyl)-6,6-dimethyl-N-((S)-3-oxo-1-((S)-2-oxopyrrolidin-3-yl)-4-(trifluoromethoxy)butan-2-yl)-3-azabicyclo-[3.1.0]hexane-2-carboxamide], the EC50 under setting [1] is less than 0.05 µM.
